Patent US20260027380A1, “TECHNIQUES FOR MAGNETIC NANOCLUSTER-BASED COMBINATION THERAPY” (William Marsh Rice University, priority 2022, published 2026)

Tested on: MC-38 cells
Test: Detection of DNA damage (γ-H2AX staining)
Type: cell-based, murine
Settings: without AMF
Experimental: Hyperthermia treatment may induce lipid peroxidation, DNA damage, protein denaturation, and cell organelle disruption. In addition, carbon-centered free radicals generated from AAPH are highly reactive and can damage lipid, DNA, protein, and other biomolecules, leading to cell death. Thus, to understand the cell-killing mechanisms of IONC-AAPH under AMF, the effects of IONC-AAPH on various cellular components, including DNA, F-actin, mitochondria, gluthathione (GSH), and lipids, were evaluated. γ-H2AX is a sensitive marker of DNA damage and has been extensively used in research and clinical studies. It forms foci around the site of DNA double-strand break (DSB).
FIG. 7 depicts the quantification of γ-H2AX expression based on fluorescence intensity.
Detection of DNA damage: The DNA damage induced by IONC-AAPH treatment was detected by γ-H2AX staining. MC-38 cells were seeded in 4-compartment cell culture dishes and cultured overnight. Then the cells were treated with 300 μg Fe/mL of IONC-AAPH or IONC at 37° C. or under AMF for 90 min. Four hours after the treatment, the cells were fixed with 4% paraformaldehyde for 20 min, permeabilized with 0.2% Triton X-100 for 20 min and blocked with 3% bovine serum albumin (BSA) for 30 min at room temperature. […] The cells were imaged with a Nikon A1-Rsi confocal microscope and the fluorescence intensity of γ-H2AX was analyzed with ImageJ software.

## CC(C)(N=NC(C)(C)C(=N)N)C(=N)N.Cl.Cl [AAPH, 2,2′-azobis(2-amidinopropane) dihydrochloride]
  γ-H2AX foci (DNA damage): low numbers of γ-H2AX foci
